The term DC50 denotes the midpoint of the concentration-degradation curve. Broadly, the Dmax is the greatest extent of degradation seen.

Read-outs that look alike come from different tables or passages of the source. Bounds are passed on as bounds.

DC50 and Dmax data for 26 compounds are collected here from patent US11427548B2 (Arvinas Operations, Inc., priority 2015, dated 2022).

This assay addresses T1, Androgen Receptor (Homo sapiens, UniProt P10275).
T1 construct: endogenous in cells; host or cells: VCaP cells
T1 sequence (P10275 1-920): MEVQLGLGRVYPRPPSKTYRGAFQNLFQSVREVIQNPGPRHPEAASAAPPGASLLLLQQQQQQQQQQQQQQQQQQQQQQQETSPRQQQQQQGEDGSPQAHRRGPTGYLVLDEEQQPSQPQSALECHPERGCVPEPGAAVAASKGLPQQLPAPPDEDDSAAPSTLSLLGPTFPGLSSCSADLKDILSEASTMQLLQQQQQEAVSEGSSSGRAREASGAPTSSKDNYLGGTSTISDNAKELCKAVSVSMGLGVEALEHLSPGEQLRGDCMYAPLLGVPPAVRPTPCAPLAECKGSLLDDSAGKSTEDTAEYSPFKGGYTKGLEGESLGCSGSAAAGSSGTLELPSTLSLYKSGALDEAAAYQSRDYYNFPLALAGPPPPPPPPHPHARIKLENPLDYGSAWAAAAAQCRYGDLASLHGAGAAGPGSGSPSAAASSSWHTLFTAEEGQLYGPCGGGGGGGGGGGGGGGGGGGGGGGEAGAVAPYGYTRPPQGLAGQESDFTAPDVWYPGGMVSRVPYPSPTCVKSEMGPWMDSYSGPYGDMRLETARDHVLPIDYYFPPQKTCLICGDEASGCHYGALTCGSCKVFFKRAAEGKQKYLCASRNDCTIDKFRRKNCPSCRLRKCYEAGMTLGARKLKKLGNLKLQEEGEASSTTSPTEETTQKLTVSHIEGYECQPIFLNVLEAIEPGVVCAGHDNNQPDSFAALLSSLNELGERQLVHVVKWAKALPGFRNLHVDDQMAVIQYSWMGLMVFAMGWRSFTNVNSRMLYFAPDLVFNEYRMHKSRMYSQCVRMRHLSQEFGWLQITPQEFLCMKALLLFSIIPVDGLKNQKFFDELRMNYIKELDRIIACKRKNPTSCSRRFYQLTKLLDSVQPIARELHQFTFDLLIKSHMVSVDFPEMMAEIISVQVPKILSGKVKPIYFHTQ
The assay is described as follows: Androgen Receptor ELISA assay (PathScan AR ELISA) in VCaP cells: AR degradation, Dmax and DC50. In kind it is cell-based. Put shortly: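 VCaP cells in phenol red-free RPMI with 5% charcoal-stripped FBS were grown at least 3 days, then given compound as 7 half-log doses in 0.1% DMSO with 0.1 nM R1881 for 24 h. Lysates went into a sandwich AR ELISA with TMB read at 450 nm.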
In general terms: An ELISA detects its analyte on a solid surface through an enzyme-linked reagent.

The mark [1] stands for this setting: read-out: VCaP DC50; VCaP cells; Table 35.
[2] abbreviates: VCaP cells; Table 35; read-out: VCaP DC50.
Setting [3] is: VCaP, VCaP cells; Table 35; read-out: VCaP Dmax (%).

As to `Cc1ncsc1-c1ccc([C@H](C)NC(=O)[C@@H]2C[C@@H](O)CN2C(=O)[C@@H](C(C)C)n2cc(OCCCOCCCCCOc3ccc(N4C(=S)N(c5ccc(C#N)c(C(F)(F)F)c5)C(=O)C4(C)C)cc3)cn2)cc1` [Example 434], the DC50 under setting [1] is more than 501 nM.
Still for that read-out and setting: with `Cc1ncsc1-c1ccc([C@H](C)NC(=O)[C@@H]2C[C@@H](O)CN2C(=O)[C@H](C(C)C)n2cc(OCCCOCCCCCOc3ccc(N4C(=S)N(c5ccc(C#N)c(C(F)(F)F)c5)C(=O)C4(C)C)cc3)cn2)cc1` [Example 435] the figure was more than 501 nM.
Consider `Cc1ncsc1-c1ccc([C@H](C)NC(=O)[C@@H]2C[C@@H](O)CN2C(=O)[C@@H](C(C)C)n2cc(OCC3CCN(c4ccc(C(=O)N[C@H]5C(C)(C)[C@H](Oc6ccc(C#N)c(Cl)c6)C5(C)C)cc4)CC3)cn2)cc1` [Example 436], for which, under setting [2], the 50% degradation concentration (DC50) was more than 501 nM. In addition, under setting [3], the Dmax fell in the range of 51 to 70%.
For the compound `Cc1ncsc1-c1ccc([C@H](C)NC(=O)[C@@H]2C[C@@H](O)CN2C(=O)[C@H](C(C)C)n2cc(OCC3CCN(c4ccc(C(=O)N[C@H]5C(C)(C)[C@H](Oc6ccc(C#N)c(Cl)c6)C5(C)C)cc4)CC3)cn2)cc1` [Example 437], the DC50 under setting [2] was more than 501 nM.
Take `Cc1ncsc1-c1ccc([C@H](C)NC(=O)[C@@H]2C[C@@H](O)CN2C(=O)[C@@H](NC(=O)COCCN2CCN(c3ccc(C(=O)N[C@H]4C(C)(C)[C@H](Oc5ccc(C#N)c(Cl)c5)C4(C)C)cc3)CC2)C(C)(C)C)cc1` [Example 438]: the DC50 under setting [2] was less than 50 nM. Further, under setting [3], the Dmax is more than 71%.
The corresponding values for `Cc1ncsc1-c1ccc([C@H](C)NC(=O)[C@@H]2C[C@@H](O)CN2C(=O)[C@@H](NC(=O)COCC2CCN(c3ccc(C(=O)N[C@H]4C(C)(C)[C@H](Oc5ccc(C#N)c(Cl)c5)C4(C)C)cn3)CC2)C(C)(C)C)cc1` [Example 442] are less than 50 nM and more than 71%.
The corresponding values for `Cc1nccn1-c1ccc([C@H](C)NC(=O)[C@@H]2C[C@@H](O)CN2C(=O)[C@@H](NC(=O)CNC(=O)c2ccc(Oc3ccc(C(=O)N[C@H]4C(C)(C)[C@H](Oc5ccc(C#N)c(Cl)c5)C4(C)C)cc3)cc2)C(C)(C)C)cc1` [Example 444] are less than 50 nM and more than 71%.
Taken in the same sequence, the figures for `Cc1ncsc1-c1ccc([C@H](C)NC(=O)[C@@H]2C[C@@H](O)CN2C(=O)[C@@H](NC(=O)COCCNc2ccc(-c3ccc(C(=O)N[C@H]4C(C)(C)[C@H](Oc5ccc(C#N)c(Cl)c5)C4(C)C)cc3)cn2)C(C)(C)C)cc1` [Example 445] were less than 50 nM and more than 71%.
As for `Cc1ncsc1-c1ccc(CNC(=O)[C@@H]2C[C@@H](O)CN2C(=O)[C@@H](NC(=O)COCCNc2ccc(-c3ccc(C(=O)N[C@H]4C(C)(C)[C@H](Oc5ccc(C#N)c(Cl)c5)C4(C)C)cc3)cn2)C(C)(C)C)nc1` [Example 446], the DC50 under setting [2] is more than 501 nM. Moreover, under setting [3], the Dmax lay within 26 to 50%.
The corresponding values for `Cc1ncsc1-c1ccc([C@H](C)NC(=O)[C@@H]2C[C@@H](O)CN2C(=O)[C@@H](NC(=O)COCC2CCN(c3ccc(C(=O)N[C@H]4C(C)(C)[C@H](Oc5ccc(C#N)c(Cl)c5)C4(C)C)cc3)CC2)C(C)(C)C)cc1` [Example 447] are less than 50 nM and more than 71%.
As for `Cc1ncsc1-c1ccc([C@H](C)NC(=O)[C@@H]2C[C@@H](O)CN2C(=O)[C@@H](NC(=O)CNC(=O)c2ccc(Oc3ccc(C(=O)N[C@H]4C(C)(C)[C@H](Oc5ccc(C#N)c(Cl)c5)C4(C)C)cn3)cc2)C(C)(C)C)cc1` [Example 448], the DC50 under setting [2] is less than 50 nM. The Dmax under setting [3] was more than 71%.
Taken in the same sequence, the figures for `Cc1nccn1-c1ccc([C@H](C)NC(=O)[C@@H]2C[C@@H](O)CN2C(=O)[C@@H](NC(=O)COCCOc2ccc(-c3ccc(C(=O)N[C@H]4C(C)(C)[C@H](Oc5ccc(C#N)c(Cl)c5)C4(C)C)cc3)cc2)C(C)(C)C)cc1` [Example 449] were less than 50 nM and more than 71%.
Taken in the same sequence, the figures for `Cc1ncsc1-c1ccc([C@H](C)NC(=O)[C@@H]2C[C@@H](O)CN2C(=O)[C@@H](NC(=O)COCCOc2ccc(-c3ccc(C(=O)N[C@H]4C(C)(C)[C@H](Oc5ccc(C#N)c(Cl)c5)C4(C)C)cc3)cc2)C(C)(C)C)cc1` [Example 450] were less than 50 nM and more than 71%.
For `CN(C)c1ccc(CNC(=O)[C@@H]2C[C@@H](O)CN2C(=O)[C@@H](NC(=O)COCCCOCCCCCOc2ccc(N3C(=S)N(c4ccc(C#N)c(C(F)(F)F)c4)C(=O)C3(C)C)cc2)C(C)(C)C)cn1` [Example 451], under “VCaP, read-out: VCaP Dmax (%)”, the Dmax was less than 25%. Besides, the DC50 under setting [1] is more than 501 nM.
Taken in the same sequence, the figures for `C[C@H](NC(=O)[C@@H]1C[C@@H](O)CN1C(=O)[C@@H](NC(=O)COCCCOCCCCCOc1ccc(N2C(=S)N(c3ccc(C#N)c(C(F)(F)F)c3)C(=O)C2(C)C)cc1)C(C)(C)C)c1ccc(-c2nccn2C)cc1` [Example 452] were less than 25% and more than 501 nM.
Taken in the same sequence, the figures for `Cc1ncsc1-c1ccc(CNC(=O)[C@@H]2C[C@@H](O)CN2C(=O)[C@@H](NC(=O)COCCCOCCCCCOc2ccc(N3C(=S)N(c4ccc(C#N)c(C(F)(F)F)c4)C(=O)C3(C)C)cc2)C(C)(C)C)nc1` [Example 453] were less than 25% and more than 501 nM.
For `Cc1ncsc1-c1ccc([C@@H](C)NC(=O)[C@H]2C[C@H](O)CN2C(=O)[C@H](NC(=O)COCCCCCNc2ccc(C(=O)N[C@H]3C(C)(C)[C@H](Oc4ccc(C#N)c(Cl)c4)C3(C)C)cc2)C(C)(C)C)cc1` [Example 454], the DC50 under setting [2] is more than 501 nM. The Dmax under setting [3] lay within 26 to 50%.
Taken in the same sequence, the figures for `Cc1ncsc1-c1ccc([C@H](C)NC(=O)[C@@H]2C[C@@H](O)CN2C(=O)C(NC(=O)COCCCCCNc2ccc(C(=O)N[C@H]3C(C)(C)[C@@H](Oc4ccc(C#N)c(Cl)c4)C3(C)C)cc2)C(C)(C)C)cc1` (stereo partly shown) [Example 455] were more than 501 nM and 51 to 70%.
The corresponding values for `Cc1ncsc1-c1ccc([C@H](C)NC(=O)[C@@H]2C[C@@H](O)CN2C(=O)[C@@H](NC(=O)COCCC2CCN(c3ccc(C(=O)N[C@H]4C(C)(C)[C@H](Oc5ccc(C#N)c(Cl)c5)C4(C)C)cc3)CC2)C(C)(C)C)cc1` [Example 456] are less than 50 nM and more than 71%.
The corresponding values for `Cc1ncsc1-c1ccc([C@H](C)NC(=O)[C@@H]2C[C@@H](O)CN2C(=O)[C@H](NC(=O)COCCCCCNc2ccc(C(=O)N[C@H]3C(C)(C)[C@H](Oc4ccc(C#N)c(Cl)c4)C3(C)C)cc2)C(C)(C)C)cc1` [Example 457] are more than 501 nM and less than 25%.
Consider `Cc1ncsc1-c1ccc([C@H](C)NC(=O)[C@H]2C[C@@H](O)CN2C(=O)[C@@H](NC(=O)COCCCCCNc2ccc(C(=O)N[C@H]3C(C)(C)[C@H](Oc4ccc(C#N)c(Cl)c4)C3(C)C)cc2)C(C)(C)C)cc1` [Example 458], for which the half-maximal degradation concentration (DC50) under setting [2] was more than 501 nM. For the same compound, the Dmax under setting [3] was less than 25%.
The corresponding values for `Cc1ncsc1-c1ccc([C@@H](C)NC(=O)[C@@H]2C[C@@H](O)CN2C(=O)[C@@H](NC(=O)COCCCCCNc2ccc(C(=O)N[C@H]3C(C)(C)[C@H](Oc4ccc(C#N)c(Cl)c4)C3(C)C)cc2)C(C)(C)C)cc1` [Example 459] are more than 501 nM and 26 to 50%.
Taken in the same sequence, the figures for `Cc1ncsc1-c1ccc([C@H](C)NC(=O)[C@@H]2CC(OC(=O)[C@@H]3CCCN3)CN2C(=O)[C@@H](NC(=O)COCCCCCNc2ccc(C(=O)N[C@H]3C(C)(C)[C@H](Oc4ccc(C#N)c(Cl)c4)C3(C)C)cc2)C(C)(C)C)cc1` (stereo partly shown) [Example 461] were less than 50 nM and more than 71%.
The corresponding values for `Cc1ncsc1-c1ccc([C@H](CN2CCCC2)NC(=O)[C@@H]2C[C@@H](O)CN2C(=O)[C@@H](NC(=O)COCCCCCOc2ccc(C(=O)N[C@H]3C(C)(C)[C@H](Oc4ccc(C#N)c(Cl)c4)C3(C)C)cc2)C(C)(C)C)cc1` [Example 465] are less than 50 nM and more than 71%.
With `Cc1ncsc1-c1ccc([C@@H](CN2CCCC2)NC(=O)[C@@H]2C[C@@H](O)CN2C(=O)[C@@H](NC(=O)COCCCCCOc2ccc(C(=O)N[C@H]3C(C)(C)[C@H](Oc4ccc(C#N)c(Cl)c4)C3(C)C)cc2)C(C)(C)C)cc1` [Example 466], the DC50 under setting [2] lay within 51 to 500 nM. Besides, the greatest degradation seen (Dmax) under setting [3] is more than 71%.
For the compound `Cc1ncsc1-c1ccc([C@H](C)NC(=O)[C@@H]2C[C@@H](OC(=O)C(C)C)CN2C(=O)[C@@H](NC(=O)COCCCCCNc2ccc(C(=O)N[C@H]3C(C)(C)[C@H](Oc4ccc(C#N)c(Cl)c4)C3(C)C)cc2)C(C)(C)C)cc1` [Example 468], under setting [2], the DC50 was less than 50 nM. For the same compound, under setting [3], the Dmax was more than 71%.
